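Cells were grown in 96-well plates and exposed to each compound for 48 hours at five concentrations; endpoints were interpolated linearly between bracketing concentrations, or set to the highest concentration if not reached. Here, GI50 denotes the concentration required for 50% inhibition of growth. TGI: concentration producing complete growth inhibition.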
Assays:
Experiment in all cases: growth of human tumour cells (NCI), 48 h
OVCAR-4 ovarian = tested on: OVCAR-4 ovarian
NCI-H522 lung = tested on: NCI-H522 lung
HCT-116 colon = tested on: HCT-116 colon
CAKI-1 renal = tested on: CAKI-1 renal
MOLT-4 leukemia = tested on: MOLT-4 leukemia
OVCAR-8 ovarian = tested on: OVCAR-8 ovarian
CCRF-CEM leukemia = tested on: CCRF-CEM leukemia
MDA-MB-435 = tested on: MDA-MB-435
K-562 leukemia = tested on: K-562 leukemia
SN12C renal = tested on: SN12C renal
SK-MEL-5 melanoma = tested on: SK-MEL-5 melanoma
UO-31 renal = tested on: UO-31 renal
HOP-92 NSCLC = tested on: HOP-92 NSCLC
SK-MEL-28 melanoma = tested on: SK-MEL-28 melanoma
BT-549 breast = tested on: BT-549 breast
U251 CNS = tested on: U251 CNS
COLO 205 colon = tested on: COLO 205 colon
HS 578T breast = tested on: HS 578T breast
UACC-62 melanoma = tested on: UACC-62 melanoma
HCC-2998 colon = tested on: HCC-2998 colon
OVCAR-5 ovarian = tested on: OVCAR-5 ovarian
PC-3 prostate = tested on: PC-3 prostate
NCI-H23 lung = tested on: NCI-H23 lung
ACHN renal = tested on: ACHN renal
RPMI-8226 leukemia = tested on: RPMI-8226 leukemia
SR leukemia = tested on: SR leukemia
SK-OV-3 ovarian = tested on: SK-OV-3 ovarian
SF-295 CNS = tested on: SF-295 CNS
A498 renal = tested on: A498 renal
EKVX NSCLC = tested on: EKVX NSCLC
IGROV1 ovarian = tested on: IGROV1 ovarian
A549 NSCLC = tested on: A549 NSCLC
UACC-257 melanoma = tested on: UACC-257 melanoma
SW-620 colon = tested on: SW-620 colon
SK-MEL-2 melanoma = tested on: SK-MEL-2 melanoma
MDA-MB-231 breast = tested on: MDA-MB-231 breast
MCF7 breast = tested on: MCF7 breast
MALME-3M melanoma = tested on: MALME-3M melanoma
NCI-H226 lung = tested on: NCI-H226 lung
HOP-62 NSCLC = tested on: HOP-62 NSCLC
M14 melanoma = tested on: M14 melanoma
SNB-19 CNS = tested on: SNB-19 CNS
786-0 renal = tested on: 786-0 renal
SNB-75 CNS = tested on: SNB-75 CNS
HL-60(TB) leukemia = tested on: HL-60(TB) leukemia
HCT-15 colon = tested on: HCT-15 colon
LOX IMVI melanoma = tested on: LOX IMVI melanoma
T-47D breast = tested on: T-47D breast
SF-539 CNS = tested on: SF-539 CNS
TK-10 renal = tested on: TK-10 renal
RXF 393 renal = tested on: RXF 393 renal
KM12 colon = tested on: KM12 colon
HT29 colon = tested on: HT29 colon
DU-145 prostate = tested on: DU-145 prostate
SF-268 CNS = tested on: SF-268 CNS
OVCAR-3 ovarian = tested on: OVCAR-3 ovarian
NCI/ADR-RES ovarian = tested on: NCI/ADR-RES ovarian
NCI-H460 lung = tested on: NCI-H460 lung

## O=C1NC(=O)/C(=C/c2c(Cl)nc3sccn23)S1
OVCAR-4 ovarian
  GI50: > 100 µM
  TGI: > 100 µM
NCI-H522 lung
  GI50: > 100 µM
  TGI: > 100 µM
HCT-116 colon
  GI50: 80.4 µM
  TGI: > 100 µM
CAKI-1 renal
  GI50: > 100 µM
  TGI: > 100 µM
MOLT-4 leukemia
  GI50: > 100 µM
  TGI: > 100 µM
OVCAR-8 ovarian
  GI50: > 100 µM
  TGI: > 100 µM
CCRF-CEM leukemia
  GI50: 71.2 µM
  TGI: > 100 µM
MDA-MB-435
  GI50: 97.3 µM
  TGI: > 100 µM
K-562 leukemia
  GI50: 68.9 µM
  TGI: > 100 µM
SN12C renal
  GI50: > 51.5 µM
  TGI: > 100 µM
SK-MEL-5 melanoma
  GI50: 35.5 µM
  TGI: > 100 µM
UO-31 renal
  GI50: > 100 µM
  TGI: > 100 µM
HOP-92 NSCLC
  GI50: 20.9 µM
  TGI: > 100 µM
SK-MEL-28 melanoma
  GI50: > 82.4 µM
  TGI: > 100 µM
BT-549 breast
  GI50: > 84.5 µM
  TGI: > 100 µM
U251 CNS
  GI50: > 81.1 µM
  TGI: > 100 µM
COLO 205 colon
  GI50: > 86.6 µM
  TGI: > 100 µM
HS 578T breast
  GI50: 30.9 µM
  TGI: > 100 µM
UACC-62 melanoma
  GI50: 42.3 µM
  TGI: > 100 µM
HCC-2998 colon
  GI50: > 100 µM
  TGI: > 100 µM
OVCAR-5 ovarian
  GI50: > 74.6 µM
  TGI: > 100 µM
PC-3 prostate
  GI50: > 87.7 µM
  TGI: > 100 µM
NCI-H23 lung
  GI50: > 56.4 µM
  TGI: > 100 µM
ACHN renal
  GI50: > 100 µM
  TGI: > 100 µM
RPMI-8226 leukemia
  GI50: 36.1 µM
  TGI: > 100 µM
SR leukemia
  GI50: 37.6 µM
  TGI: > 100 µM
SK-OV-3 ovarian
  GI50: > 70.1 µM
  TGI: > 100 µM
SF-295 CNS
  GI50: 64.4 µM
  TGI: > 100 µM
A498 renal
  GI50: 1.01 µM
  TGI: 46.1 µM
EKVX NSCLC
  GI50: > 66.1 µM
  TGI: > 100 µM
IGROV1 ovarian
  GI50: > 100 µM
  TGI: > 100 µM
A549 NSCLC
  GI50: > 100 µM
  TGI: > 100 µM
UACC-257 melanoma
  GI50: > 91.9 µM
  TGI: > 100 µM
SW-620 colon
  GI50: > 100 µM
  TGI: > 100 µM
SK-MEL-2 melanoma
  GI50: > 100 µM
  TGI: > 100 µM
MDA-MB-231 breast
  GI50: 28.7 µM
  TGI: > 100 µM
MCF7 breast
  GI50: > 65.4 µM
  TGI: > 100 µM
MALME-3M melanoma
  GI50: > 59.7 µM
  TGI: > 100 µM
NCI-H226 lung
  GI50: 14.2 µM
  TGI: > 100 µM
HOP-62 NSCLC
  GI50: > 100 µM
  TGI: > 100 µM
M14 melanoma
  GI50: 66.4 µM
  TGI: > 100 µM
SNB-19 CNS
  GI50: > 79.1 µM
  TGI: > 100 µM
786-0 renal
  GI50: > 85.8 µM
  TGI: > 100 µM
SNB-75 CNS
  GI50: > 100 µM
  TGI: > 100 µM
HL-60(TB) leukemia
  GI50: > 100 µM
  TGI: > 100 µM
HCT-15 colon
  GI50: > 74.9 µM
  TGI: > 100 µM
LOX IMVI melanoma
  GI50: 57 µM
  TGI: > 100 µM
T-47D breast
  GI50: 31.3 µM
  TGI: > 75.8 µM
SF-539 CNS
  GI50: > 31.8 µM
  TGI: > 83.8 µM
TK-10 renal
  GI50: > 57.6 µM
  TGI: > 100 µM
RXF 393 renal
  GI50: > 65.7 µM
  TGI: > 100 µM
KM12 colon
  GI50: > 100 µM
  TGI: > 100 µM
HT29 colon
  GI50: > 100 µM
  TGI: > 100 µM
DU-145 prostate
  GI50: > 100 µM
  TGI: > 100 µM
SF-268 CNS
  GI50: > 57.1 µM
  TGI: > 100 µM
OVCAR-3 ovarian
  GI50: > 70.9 µM
  TGI: > 100 µM
NCI/ADR-RES ovarian
  GI50: > 100 µM
  TGI: > 100 µM
NCI-H460 lung
  GI50: > 75.8 µM
  TGI: > 100 µM

— PubChem BioAssay (NCI)
